Molecular target: T1, Activated human p38α (Homo sapiens, UniProt Q16539)
T1 construct: purchased Upstate Biotechnology Inc. 14-251
Assay: p38MAP kinase inhibition test
Assay type: biochemical
Details: at a concentration of 1 μmol/L; substrate myelin basic protein, ATP 20 μmol/L, [γ-32P]ATP; read-out: enzyme inhibitory activity
Procedure: p38MAP Kinase Inhibition Test
Activated human p38α was purchased from Upstate Biotechnology Inc. (Catalog No. 14-251). P38MAP kinase inhibitory activity was measured by the procedure described below with reference to the method by Whitmarsh A. J. and Davis R. J. [Methods in Enzymology (Method. Enzymol.), vol. 332, p. 319-336 (2001)]. As the substrate to be phosphorylated, a myelin basic protein (Catalog No. 133-13493, Wako Pure Chemical Industries, Ltd.) (20 μg/assay) was used. The reaction was carried out in a solution containing 3-[N-Morpholino]propanesulfonic acid (MOPS) (20 mmol/L, pH 7.2), β-glycerophosphoric acid (Sigma Corp.) (25 mmol/L), ethylenebis(oxyethylenenitrilo)tetraacetic acid (EGTA) (1 mmol/L), […] (Sigma-Aldrich Corp.) (1 mmol/L), dithiothreitol (DTT, Wako Pure Chemical Industries, Ltd.) (1 mmol/L), adenosine 5′-triphosphate (ATP, Sigma Corp.) (20 μmol/L), and MgCl2 (18.75 mmol/L) (total 40 μL/assay). The reaction was started by adding human p38α and [γ-^32P]ATP (1 μCi/assay), and incubation was performed at 30° C. for 15 minutes. The reaction was terminated by adding 4.5% v/v phosphoric acid (10 μL/well). Then, 45 μL of the reaction mixture was adsorbed onto phosphocellulose paper (p81 paper, Code No. 3698023, Whatman International, Maidstone, UK). The phosphocellulose paper was washed with 0.75% v/v phosphoric acid. Then, the radioactivity of the phosphorylated myelin basic protein ([^32P]) remaining on the phosphocellulose paper was measured with a scintillation counter (TRI-CARB2700TR, PerkinElmer, Boston, Mass., USA) using program No. 27 (data mode: cpm, measurement time: 1 min, Background substract: none, energy range measured: LL 0.0-UL 2000) or a scintillation counter (LS6500, BeckmanCoulter, Fullerton, Calif., USA) using program No. 17 (data mode: cpm, measurement time: 1 min, Background substract: none, energy range measured: high). The test compound was dissolved in DMSO before addition.

T1 sequence (Q16539 whole entry): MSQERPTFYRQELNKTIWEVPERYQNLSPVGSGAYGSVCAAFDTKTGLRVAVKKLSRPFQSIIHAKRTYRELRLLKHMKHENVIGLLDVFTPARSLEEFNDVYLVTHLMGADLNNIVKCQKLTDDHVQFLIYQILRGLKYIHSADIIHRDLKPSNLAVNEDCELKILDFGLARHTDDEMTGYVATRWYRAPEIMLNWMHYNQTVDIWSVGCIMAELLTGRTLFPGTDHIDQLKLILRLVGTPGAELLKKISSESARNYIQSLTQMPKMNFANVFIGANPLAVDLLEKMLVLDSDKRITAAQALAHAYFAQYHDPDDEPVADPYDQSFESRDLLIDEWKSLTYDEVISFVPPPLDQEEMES

SMILES | inhibition at 1 µM [%]
CC(C)Nc1ncc2cc(-c3ccccc3Cl)c(-c3cccc(Cl)c3)cc2n1 [Compound 43, 6-(2-Chlorophenyl)-7-(3-chlorophenyl)-2-isopropylaminoquinazoline] | ≥ 50
COc1cc2nc(NC(C)C)ncc2cc1-c1ccccc1 [Compound 44, 2-Isopropylamino-7-methoxy-6-phenylquinazoline] | ≥ 50
COc1cc2nc(NC(C)C)ncc2cc1-c1ccc(O)cc1 [Compound 47, 6-(4-Hydroxyphenyl)-2-isopropylamino-7-methoxyquinazoline] | ≥ 50
COc1cc2nc(NC(C)C)ncc2cc1-c1cccc(N)c1 [Compound 50, 6-(3-Aminophenyl)-2-isopropylamino-7-methoxyquinazoline] | ≥ 50
COc1cc2nc(NC(C)C)ncc2cc1-c1cccc(NC(C)=O)c1 [Compound 52, 6-[(3-Acetylamino)phenyl]-2-isopropylamino-7-methoxyquinazoline] | ≥ 50
COc1cc2nc(NC(C)C)ncc2cc1-c1cccc(NC(=O)c2ccnc(N3CCOCC3)c2)c1 [Compound 53, 2-Isopropylamino-7-methoxy-6-{3-[(2-morpholinopyridin-4-yl)carbonylamino]phenyl}quinazoline] | ≥ 50
COc1cc2nc(NC(C)C)ncc2cc1-c1cccc(NC(=O)c2cccc(N(C)C)c2)c1 [Compound 54, 2-Isopropylamino-7-methoxy-6-{3-[(3-dimethylaminophenyl)carbonylamino]phenyl}quinazoline] | ≥ 50
COc1cc2nc(NC(C)C)ncc2cc1-c1ccccc1[N+](=O)[O-] [Compound 55, 2-Isopropylamino-7-methoxy-6-(2-nitrophenyl)quinazoline] | ≥ 50
COc1cc2nc(NC(C)C)ncc2cc1-c1ccccc1NC(C)=O [Compound 56, 6-[2-(Acetylamino)phenyl]-2-isopropylamino-7-methoxyquinazoline] | ≥ 50
COc1cc2nc(NC(C)C)ncc2cc1-c1ccccc1C=O [Compound 57, 6-(2-Formylphenyl)-2-isopropylamino-7-methoxyquinazoline] | ≥ 50
COc1cc2nc(NC(C)C)ncc2cc1-c1ccccc1C=NO [Compound 58] | ≥ 50
CON=Cc1ccccc1-c1cc2cnc(NC(C)C)nc2cc1OC [Compound 59, 2-Isopropylamino-7-methoxy-6-[2-(methoxyimino)phenyl]quinazoline] | ≥ 50
COc1c(-c2ccccc2Cl)cc2cnc(NC(C)C)nc2c1Br [Compound 60, 8-Bromo-6-(2-chlorophenyl)-2-isopropylamino-7-methoxyquinazoline] | ≥ 50
COC(=O)c1c(OC)c(-c2ccccc2Cl)cc2cnc(NC(C)C)nc12 [Compound 61, 6-(2-Chlorophenyl)-2-isopropylamino-7-methoxy-8-(methoxycarbonyl)quinazoline] | ≥ 50
CCCOC(=O)c1c(OC)c(-c2ccccc2Cl)cc2cnc(NC(C)C)nc12 [Compound 62, 6-(2-Chlorophenyl)-2-isopropylamino-7-methoxy-8-(propoxycarbonyl)quinazoline] | ≥ 50
CCCOC(=O)c1c(O)c(-c2ccccc2Cl)cc2cnc(NC(C)C)nc12 [Compound 63, 6-(2-Chlorophenyl)-7-hydroxy-2-isopropylamino-8-(propoxycarbonyl)quinazoline] | ≥ 50
COc1c(-c2ccccc2Cl)cc2cnc(NC(C)C)nc2c1C(=O)N1CCOCC1 [Compound 66, 6-(2-Chlorophenyl)-2-isopropylamino-8-(morpholinocarbonyl)-7-methoxyquinazoline] | ≥ 50
COc1c(-c2ccccc2Cl)cc2cnc(NC(C)C)nc2c1C(=O)N1CCCCC1 [Compound 67, 6-(2-Chlorophenyl)-2-isopropylamino-7-methoxy-8-(piperidinocarbonyl)quinazoline] | ≥ 50
CCN(CC)C(=O)c1c(OC)c(-c2ccccc2Cl)cc2cnc(NC(C)C)nc12 [Compound 68, 6-(2-Chlorophenyl)-8-(N,N-diethylaminocarbonyl)-2-isopropylamino-7-methoxyquinazoline] | ≥ 50

SMILES | inhibition at 1 µM [%]
CCCNC(=O)c1c(OC)c(-c2ccccc2Cl)cc2cnc(NC(C)C)nc12 [Compound 69, 6-(2-Chlorophenyl)-2-isopropylamino-7-methoxy-8-(N-propylaminocarbonyl)quinazoline] | ≥ 50
COc1c(-c2ccccc2Cl)cc2cnc(NC(C)C)nc2c1C(=O)N(C)OC [Compound 71, 6-(2-Chlorophenyl)-2-isopropylamino-7-methoxy-8-(N-methoxy-N-methylaminocarbonyl)quinazoline] | ≥ 50
CON(C)C(=O)c1c(O)c(-c2ccccc2Cl)cc2cnc(NC(C)C)nc12 [Compound 72, 6-(2-Chlorophenyl)-7-hydroxy-2-isopropylamino-8-(N-methoxy-N-methylaminocarbonyl)quinazoline] | ≥ 50
CCOC(=O)/C=C/c1c(OC)c(-c2ccccc2Cl)cc2cnc(NC(C)C)nc12 [Compound 73, 6-(2-Chlorophenyl)-8-[(E)-2-(ethoxycarbonyl)ethenyl]-7-methoxy-2-(isopropylamino)quinazoline] | ≥ 50
COc1c(-c2ccccc2Cl)cc2cnc(NC(C)C)nc2c1/C=C/C(=O)O [Compound 74, 8-[(E)-2-carboxyethenyl]-6-(2-chlorophenyl)-7-methoxy-2-(isopropylamino)quinazoline] | ≥ 50
C=Cc1c(OC)c(-c2ccccc2Cl)cc2cnc(NC(C)C)nc12 [Compound 76, 6-(2-Chlorophenyl)-2-isopropylamino-7-methoxy-8-vinylquinazoline] | ≥ 50
COc1c(-c2ccccc2Cl)cc2cnc(NC(C)C)nc2c1C(C)=O [Compound 77, 8-Acetyl-6-(2-chlorophenyl)-2-isopropylamino-7-methoxyquinazoline] | ≥ 50
CC(=O)c1c(O)c(-c2ccccc2Cl)cc2cnc(NC(C)C)nc12 [Compound 78, 8-Acetyl-6-(2-chlorophenyl)-7-hydroxy-2-(isopropylamino)quinazoline] | ≥ 50
CCOC(=O)COc1c(-c2ccccc2Cl)cc2cnc(NC(C)C)nc2c1C(C)=O [Compound 79, 8-Acetyl-6-(2-chlorophenyl)-7-(ethoxycarbonylmethyloxy)-2-(isopropylamino)quinazoline] | ≥ 50
CC(=O)c1c(OCC(=O)O)c(-c2ccccc2Cl)cc2cnc(NC(C)C)nc12 [Compound 80, 8-Acetyl-7-(carboxymethyloxy)-6-(2-chlorophenyl)-2-(isopropylamino)quinazoline] | ≥ 50
CC(C)Nc1ncc2cc(-c3ccccc3Cl)c(OCC(C)(C)O)c(C(C)(C)O)c2n1 [Compound 81, 6-(2-Chlorophenyl)-8-(1-hydroxy-1-methylethyl)-7-(2-hydroxy-2-methylpropyloxy)-2-(isopropylamino)quinazoline] | ≥ 50
COc1c(-c2ccc(F)cc2F)cc2cnc(NC(C)C)nc2c1Br [Compound 82, 8-Bromo-6-(2,4-difluorophenyl)-2-isopropylamino-7-methoxyquinazoline] | ≥ 50
CC(C)Nc1ncc2cc(-c3ccc(F)cc3F)c(O)c(-c3ccc(F)cc3)c2n1 [Compound 84, 6-(2,4-Difluorophenyl)-8-(4-fluorophenyl)-2-isopropylamino-7-hydroxyquinazoline] | ≥ 50
COc1c(-c2ccccc2Cl)cc2cnc(NC(C)C)nc2c1-c1ccccn1 [Compound 86, 6-(2-Chlorophenyl)-2-isopropylamino-7-methoxy-8-(2-pyridyl)quinazoline] | ≥ 50
CC(C)Nc1ncc2cc(-c3ccccc3Cl)c(O)c(-c3ccccn3)c2n1 [Compound 87, 6-(2-Chlorophenyl)-2-isopropylamino-7-hydroxy-8-(2-pyridyl)quinazoline] | ≥ 50
CC(C)Nc1ncc2cc(-c3ccccc3Cl)c(O)c(I)c2n1 [Compound 88, 6-(2-Chlorophenyl)-7-hydroxy-8-iodo-2-(isopropylamino)quinazoline] | ≥ 50
COCOc1c(-c2ccccc2Cl)cc2cnc(NC(C)C)nc2c1-c1ccc(C(=O)O)cc1 [Compound 91, 8-(4-Carboxyphenyl)-6-(2-chlorophenyl)-2-isopropylamino-7-(methoxymethyloxy)quinazoline] | ≥ 50
CC(C)Nc1ncc2cc(-c3ccccc3Cl)c(O)c(-c3ccc(C(=O)O)cc3)c2n1 [Compound 92, 8-(4-Carboxyphenyl)-6-(2-chlorophenyl)-7-hydroxy-2-(isopropylamino)quinazoline] | ≥ 50

From patent US7906522B2, “2-aminoquinazoline derivatives” (Kyowa Hakko Kirin Co., Ltd, priority 2005, dated 2011)
